Data reported in patent US9951102B2, “Peptide inhibitor of Nox1 NADPH oxidase” (University of Iowa Research Foundation, priority 2014, dated 2018).
Where no end group is shown, it is not given here.

Assays:
[1] = test system: TNF-α-induced Nox1-dependent ROS production in WT VSMCs; test: ROS detection by CM-H2DCF fluorescence in VSMCs; type: cell-based, mouse; settings: CalC pretreatment, TNF-α 10 ng/mL 30 minutes
Experimental: C57 WT or Nox1^−/y VSMCs were seeded on glass chamber slides at 75% confluence, serum-starved in cell culture medium containing no FBS for 24 h, washed in phenol red-free DMEM, and incubated in 10 μM CM-H2DCFDA for 30 m, pretreated with CalC or DMSO, and treated with 10 ng/mL TNF-α for 30 minutes. The cells were then washed 3×100 μL cold PBS, fixed with 2% paraformaldehyde for 15 minutes, washed twice with PBS, incubated in 1 μM To-Pro-3 for 5 minutes in dark, and washed twice with PBS. The chambers were removed and cells were mounted in Vectashield and imaged by confocal microscopy.
500 μL Opti-MEM was added to a 60 mm gelatin-coated cell culture plate. To this siPKC-β or siControl was added (final concentration 200 nM), plus 12 μL RNAiMax. Plates were rocked and incubated for 20 minutes. Cells were detached by use of trypsin, which was quenched in 10% FBS containing no antibiotics, centrifuged at 500 g for 5 minutes, resuspended in 5 mL 10% FBS without antibiotics and counted. Cells were added to plate for a seeding density of 75%, and medium was added to a final volume of 3 mL. Cells were incubated for 5 hours at 37° C., then medium was changed to 10% FBS. The next day, cells were serum starved in medium containing no FBS for 24 hours. Cells were then prepared for analysis by WB, DCF fluorescence or migration assay.

[2] = test system: Nox1 phosphorylation in A7r5 rat aortic VSMCs; test: TNF-α-stimulated Nox1 phosphorylation, anti-p22phox IP / anti-STY Western blot, A7r5 VSMCs; type: cell-based; settings: CalC pretreatment 100 nM, TNF-α 10 ng/mL 10 minutes
Experimental: Equal volumes of samples were pre-cleared with Protein G Dynabeads (10 μL/1.5 mg protein in lysate) for 30 minutes at 4° C., end-over-end rotation, followed by a quick spin at high speed, then placed on a magnetic rack for 1 minute. SNT was removed to a new tube on ice. The p22^phox/Nox1 complex was immunoprecipitated using anti-p22^phox antibody C-17 (1 μg/500 μg protein in lysate) and rotated for 45 minutes at 4° C. (Hanna et al., 2004). Next, 20 μL Protein G Dynabeads was added to each sample and rotated for 20 minutes at 4° C., followed by a quick spin at high speed, then placed on a magnetic rack 1 m. SNT was moved to a new tube on ice and frozen for later analysis. The Dynabead pellet was washed three times with 200 μL NP40 buffer, followed by addition of 15 μL twice with sample buffer (4% SDS, 20% glycerol, 10% 2-mercaptoethanol, 0.004% bromphenol blue, 0.125 M Tris HCl, pH 6.8). […] Samples were then analyzed by WB.
One quarter volume of 5× sample buffer (6 g SDS, 40% glycerol, 30% 2-mercaptoethanol, 383.3 mg dithiothreitol, 372 mg EDTA, 378.3 mg Tris, 50 mg bromphenol blue in 50 ml ddH2O, pH 6.8) was added to lysates. […] Phosphorylation of Nox1 residues was determined utilizing a phospho-serine/threonine/tyrosine (p-STY) antibody that reacts with these residues only under phosphorylated conditions (Zhang et al., 2010, Chen et al., 2006). […]

[3] = test system: NADPH oxidase activity in VSMC membrane fractions; test: ROS detection by lucigenin-enhanced chemiluminescence; type: cell-based, rat; settings: 30 minute pre-incubation, 100 nM DPI or 100 μM CalC, TNF-α 10 ng/mL 10 minutes
Experimental: A7r5 rat aortic smooth muscle cells were seeded at 75% confluence in 10% FBS medium, infected with AdNox1GFP for 48 hours, serum-starved in 0.2% FBS medium for 24 hours. Cells were then subjected to a 30 minute pre-incubation with 100 nM DPI or 100 μM CalC or DMSO, then treated with 10 ng/mL TNF-α for 10 minutes, washed three times in cold PBS, and homogenized in Homogenization Buffer (0.25 M sucrose, 10 mM triethanolamine, 4% protease inhibitor cocktail, 0.1 M EDTA, pH 7.4) with a Tissue Tearor. Lucigenin was then added to a final concentration of 5 μM. Samples were then analyzed by a FB12 Chemiluminometer every 10 seconds for 5 minutes. Then NADPH was added to a final concentration of 100 μM and readings were taken for another 5 m. Average baseline value was subtracted from the average NADPH-stimulated value.

WT VSMC migration = test: Transwell migration assay to TNF-α; type: cell-based, mouse; settings: CalC pretreatment 30 minutes, 5 hours migration
Experimental: WT or Nox1^−/y C57 mouse aortic VSMCs were pretreated with CalC or DMSO (vehicle) for 30 minutes, washed once with PBS, and cells were detached with trypsin, which was quenched with trypsin inhibitor. Cells were transferred to a conical tube, centrifuged at 500 g for 5 minutes. The SNT was aspirated, and cells were resuspended in 125 μL cell culture medium containing no FBS. Cell counts were obtained on a Beckman Z1 Coulter Particle Counter. Cells suspensions were diluted to a concentration of 1,000 cells/μL. 50 μL of the cell suspension was added to the upper chamber of a Costar Transwell Permeable Support (8.0 μm polycarbonate membrane, 6.5 mm insert). 500 μl medium containing no FBS with or without TNF-α was added to the lower chamber. […] Cells were fixed in 4% paraformaldehyde, membranes were removed from support with a scalpel and mounted in Vectashield plus DAPI, cover-slipped and five random fields from each membrane were imaged at 20× and the number of cells migrated to the bottom of the Transwell was counted. […]
500 μL Opti-MEM was added to a 60 mm gelatin-coated cell culture plate. […] Cells were detached by use of trypsin, which was quenched in 10% FBS containing no antibiotics, centrifuged at 500 g for 5 minutes, resuspended in 5 mL 10% FBS without antibiotics and counted. […] Cells were then prepared for analysis by WB, DCF fluorescence or migration assay.

[4] = molecular target: T1, NoxA1 activation domain (AD) peptide LEPMDFLGKAKVV (Homo sapiens, UniProt Q86UR1); test: Isothermal titration calorimetry peptide interaction; type: binding; settings: ITC, 25° C., pH 7.4, n=3 independent experiments, ± standard deviation; read-out: Affinity (Kd) for the interaction with NoxA1 AD peptide
T1 construct: purchased ProImmune
Experimental: The affinity of the interaction between non-phosphorylated and phosphorylated Nox1 and NoxA1 was determined by isothermal titration calorimetry (ITC). Phosphorylated or non-phosphorylated peptides corresponding to amino acids KLKTQKIYF (SEQ ID NO:9) of Nox1 and a peptide corresponding to amino acids LEPMDFLGKAKVV (SEQ ID NO:10) of NoxA1 peptides were purchased from ProImmune. The peptides were resuspended in 20 mM Na2HPO4, 100 mM […], pH 7.4 to a final concentration of 800 μM (Nox1) and 20 μM (NoxA1). The peptides were degassed and ITC measurements recorded using a MicroCal VP-ITC System (GE Healthcare). 21 injections of Nox1 peptides into NoxA1 peptide were used, with 240 s spacing between events. The chamber was kept under constant stirring at 350 rpm and all experiments were performed at 25° C. […] The constant heat of dilution, as determined by the average of the last 3-5 injections, was subtracted and the data are analyzed using the single site binding model provided in the ITC analysis package. The values for affinity and stoichiometry from three experiments were averaged and shown±standard deviation.

Compound	Nox1-dependent ROS production (CM-H2DCF fluorescence) [1]	TNF-α-stimulated Nox1 phosphorylation [2]	TNF-α-primed NADPH oxidase activity (lucigenin-enhanced chemiluminescence) [3]	Migration of WT VSMCs to TNF-α (WT VSMC migration)	Kd [4] [µM]
COc1c(C[C@@H](C)OC(=O)Oc2ccc(O)cc2)c2c3c(C[C@@H](C)OC(=O)c4ccccc4)c(OC)c(=O)c4c(O)cc(OC)c(c5c(OC)cc(O)c(c1=O)c52)c43 [CalC, Calphostin C]	abrogated	inhibited	completely abolished	blocked	–
[Cl-].c1ccc2c(c1)[I+]c1ccccc1-2 [DPI, Diphenyleneiodoium chloride]	–	–	completely abolished	–	–
KLKTQKIYF [Nox1 peptide, KLKTQKIYF]	–	–	–	–	> 100
